Reference: article PMC8957246, “Synthesis and diverse biological activity profile of triethylammonium isatin-3-hydrazones” (ADMET & DMPK, 2022)

Legend:
[1] = tested on: methicillin-resistant strains of S. aureus (MRSA-1); assay: Antimicrobial activity, serial dilution (MIC/MBC), MRSA-1; type: cell-based; conditions: Staphylococcus aureus
Method: (§1) The antimicrobial activity of the test compounds was determined by the serial dilution technique in Muller Hinton Broth 2 and in Sabouradu broth for fungi. The cultures used for testing included Gram-positive bacteria: Staphylococcus aureus ATCC 6538P FDA 209P, Bacillus cereus ATCC 10702 NCTC 8035, Enterococcus faecalis ATCC 29212; Gram-negative bacteria: Escherichia coli ATCC 25922, Pseudomonas aeruginosa ATCC 9027, and fungi: Trichophyton mentagrophytes var. gypseum 1773, and Candida albicans ATCC 10231; methicillin-resistant strains of S. aureus (MRSA) was obtained from hospital patients with chronic tonsillitis in the Republican Clinical Hospital (Kazan, Russia). The bacterial load was 3.0 × 10^5 cfu/ml. The fungi load was 2.0 × 10^3 cfu/ml. The results were recorded every 24 h for 5-7 days. Cultures were incubated at 37 °C. The experiment was repeated three times. […] The minimum inhibitory concentration (MIC) was defined as the minimum concentration of a compound that inhibits the growth of the corresponding test microorganism. The growth of bacteria, as well as the absence of the growth due to the bacteriostatic action of compounds, were recorded.
(§2) Synthesized compounds were further evaluated for antimicrobial activity against test microorganisms: Staphylococcus aureus ATCC 209p (Sa), Bacillus cereus ATCC 8035 (Bc), Escherichia coli CDC F-50 (Ec), Enterococcus faecalis (Ef), Pseudomonas aeruginosa ATCC 9027, Aspergillus niger BKMF-1119, Trichophyton mentagrophytes var. gypseum 1773, and Candida albicans 855-653 including methicillin-resistant strains of S. aureus (MRSA 1 and MRSA 2). The minimum inhibitory (MIC) and minimum bactericidal (MBC) concentrations of ammonium salts were determined against these pathogens (Table 1). Due to the lack of activity of compounds 3a-g against Gram-negative bacterial strains and some fungi, the corresponding data are not shown.

[2] = tested on: methicillin-resistant strains of S. aureus (MRSA-2); assay: Antimicrobial activity, serial dilution (MIC/MBC), MRSA-2; type: cell-based; conditions: Staphylococcus aureus
Method: as §1, §2

[3] = tested on: MRSA-1 and MRSA-2 compared to erythrocytes and hepatocytes; assay: Selectivity index (HC50 or IC50 / MIC); parameters: species or system Staphylococcus aureus; conditions: resistant strains MRSA-1 and MRSA-2 compared to erythrocytes and hepatocytes
Method: The selectivity of compounds for microbial cells is an important criterion for assessing the cytotoxic effect. This indicator is characterized by the value of the selectivity index (SI), which for the leading compounds 3b, 3c, and 3d was calculated as the ratio between the HC50 value for erythrocytes (IC50 for eukaryotic cells) and the MIC value for bacterial cells (Fig. 4). […] Its selectivity index was 3–8 times higher than that of compounds 3b and 3c.

SMILES	MBC [1]	MIC [1]	MBC [2]	MIC [2]	selectivity index, times higher than that of compounds 3b and 3c [3]
CCc1cccc2c1N(Cc1cc(C(C)(C)C)c(O)c(C(C)(C)C)c1)C(=O)/C2=N\NC(=O)C[N+](CC)(CC)CC [Compound 3c, 2-(2-(1-(3,5-Di-tert-butyl-4-hydroxybenzyl)-7-ethyl-2-oxoindolin-3-ylidene)hydrazinyl)-N,N,N-triethyl-2-oxoethanammonium bromide]	99.3 µM	49.7 ± 3.9 µM	99.3 µM	24.8 ± 2.2 µM	
CC[N+](CC)(CC)CC(=O)N/N=C1\C(=O)N(Cc2cc(C(C)(C)C)c(O)c(C(C)(C)C)c2)c2c1ccc(C)c2C [Compound 3d, 2-(2-(1-(3,5-Di-tert-butyl-4-hydroxybenzyl)-6,7-dimethyl-2-oxoindolin-3-ylidene)hydrazinyl)-N,N,N-triethyl-2-oxoethanammonium bromide]	12.4 µM	6.2 ± 0.5 µM	49.6 µM	6.2 ± 0.5 µM	3–8 times
